Measurements taken from ChEMBL document CHEMBL4229562, “Introduction of a Methyl Group Curbs Metabolism of Pyrido[3,4- d]pyrimidine Monopolar Spindle 1 (MPS1) Inhibitors and Enables the Discovery of the Phase 1 Clinical Candidate N2-(2-Ethoxy-4-(4-methyl-4 H-1,2,4-triazol-3-yl)phenyl)-6-methyl- N8-neopentylpyrido[3,4- d]pyrimidine-2,8-diamine …” (J Med Chem, 2018).
Converted amounts (≈) assume the structure as drawn.

Experiments:
[1] = Intrinsic clearance in CD1 mouse liver microsomes assessed per mg protein at 1 uM preincubated for 10 mins followed NADPH/UDP-glucuronic acid addition and measured after 30 mins by LC-MS/MS analysis; type: ADME, microsome; details: 0.5 h
[2] = Intrinsic clearance in human liver microsomes assessed per mg protein at 1 uM preincubated for 10 mins followed NADPH/UDP-glucuronic acid addition and measured after 30 mins by LC-MS/MS analysis; type: ADME, microsome; details: 0.5 h
[3] = Solubility of the compound in PBS buffer at pH 7.4 by HPLC analysis; type: physicochemical
[4] = Lipophilicity, log P of the compound; type: physicochemical; details: octanol/water
[5] = target: T1, Dual specificity protein kinase TTK (Homo sapiens, UniProt P33981)
T1 sequence (P33981 whole entry): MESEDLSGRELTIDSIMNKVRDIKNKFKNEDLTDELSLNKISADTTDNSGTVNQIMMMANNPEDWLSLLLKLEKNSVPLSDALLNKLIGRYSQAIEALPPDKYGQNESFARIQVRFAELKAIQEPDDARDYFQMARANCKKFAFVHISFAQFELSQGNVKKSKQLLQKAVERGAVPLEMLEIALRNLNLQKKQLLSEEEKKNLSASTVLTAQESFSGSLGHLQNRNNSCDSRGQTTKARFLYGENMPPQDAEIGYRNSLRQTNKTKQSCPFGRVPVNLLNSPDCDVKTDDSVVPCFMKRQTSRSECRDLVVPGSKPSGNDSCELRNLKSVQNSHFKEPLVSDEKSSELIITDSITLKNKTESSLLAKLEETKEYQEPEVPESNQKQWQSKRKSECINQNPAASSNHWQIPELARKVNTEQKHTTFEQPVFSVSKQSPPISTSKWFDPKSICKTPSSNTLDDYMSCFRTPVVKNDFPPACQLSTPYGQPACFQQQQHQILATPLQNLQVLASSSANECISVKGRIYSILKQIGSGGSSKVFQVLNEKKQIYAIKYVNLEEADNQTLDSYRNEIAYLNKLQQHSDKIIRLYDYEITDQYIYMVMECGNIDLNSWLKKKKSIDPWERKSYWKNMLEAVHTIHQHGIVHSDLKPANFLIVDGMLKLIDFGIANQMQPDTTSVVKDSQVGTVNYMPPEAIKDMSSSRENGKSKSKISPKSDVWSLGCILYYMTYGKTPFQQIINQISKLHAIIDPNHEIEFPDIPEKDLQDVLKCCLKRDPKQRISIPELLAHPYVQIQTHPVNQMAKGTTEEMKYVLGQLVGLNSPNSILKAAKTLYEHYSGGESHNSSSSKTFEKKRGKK
Description: Inhibition of full length human N-terminal 6xHis-tagged MPS1 expressed in baculovirus expression system using 5FAM-H236 peptide as substrate after 60 to 90 mins by caliper assay

CDK2/Cyclin A2 = CDK2/Cyclin A2 (Homo sapiens, UniProt P24941)
[6] = target: T1, Dual specificity protein kinase TTK; remark: listed apart in the source
Description: Inhibition of MPS1 autophosphorylation at Thr33/Ser37 in human HCT116 cells after 2 hrs by MSD assay

Mus musculus [7] = assay: Half life in mouse at 5 mg/kg, iv by ESI-LCMS/MS analysis; type: ADME, organism-based; details: in vivo
Rattus norvegicus [8] = assay: Half life in rat at 5 mg/kg, iv by ESI-LCMS/MS analysis; type: ADME, organism-based; details: in vivo
[9] = Clearance in mouse at 5 mg/kg, iv by ESI-LCMS/MS analysis; type: ADME, organism-based; details: in vivo
[10] = Clearance in rat at 5 mg/kg, iv by ESI-LCMS/MS analysis; type: ADME, organism-based; details: in vivo
[11] = Cmax in rat at 5 mg/kg, po by ESI-LCMS/MS analysis; type: ADME, organism-based; design: dose 5 mg/kg, route oral; details: in vivo
[12] = Cmax in mouse at 5 mg/kg, po by ESI-LCMS/MS analysis; type: ADME, organism-based; design: dose 5 mg/kg, route oral; details: in vivo
[13] = AUClast in mouse at 5 mg/kg, po measured after 6 hrs by ESI-LCMS/MS analysis; type: ADME, organism-based; details: in vivo
[14] = AUClast in rat at 5 mg/kg, po measured after 24 hrs by ESI-LCMS/MS analysis; type: ADME, organism-based; details: in vivo
[15] = Protein binding in mouse plasma; type: ADME, cell-free
[16] = Volume of distribution at steady state in mouse at 5 mg/kg, iv by ESI-LCMS/MS analysis; type: ADME, organism-based; details: in vivo, read-out: Vdss
[17] = Volume of distribution at steady state in rat at 5 mg/kg, iv by ESI-LCMS/MS analysis; type: ADME, organism-based; details: in vivo, read-out: Vdss
Mus musculus [18] = assay: Oral bioavailability in mouse at 5 mg/kg by ESI-LCMS/MS analysis; type: ADME, organism-based; details: in vivo
Rattus norvegicus [19] = assay: Oral bioavailability in rat at 5 mg/kg by ESI-LCMS/MS analysis; type: ADME, organism-based; details: in vivo
[20] = Drug metabolism in human liver microsomes assessed as 1-(2-(2-methoxy-4-(4-methyl-4H-1,2,4-triazol-3-yl)phenylamino)-6-methylpyrido[3,4-d]pyrimidin-8-ylamino)-2,2-dimethylpropan-1-ol formation at 1 uM preincubated for 10 mins followed NADPH/UDP-glucuronic acid addition and measured after 30 mins by LC-MS/MS analysis; type: ADME, microsome; details: 0.5 h
Canis familiaris [21] = assay: Half life in dog at 1 mg/kg, iv by ESI-LCMS/MS analysis; type: ADME, organism-based, Canis lupus familiaris; details: in vivo
[22] = Cmax in dog at 5 mg/kg, po by ESI-LCMS/MS analysis; type: ADME, organism-based, Canis lupus familiaris; design: dose 5 mg/kg, route oral; details: in vivo
[23] = AUClast in dog at 5 mg/kg, po measured after 48 hrs by ESI-LCMS/MS analysis; type: ADME, organism-based, Canis lupus familiaris; details: in vivo
Canis familiaris [24] = assay: Volume of distribution at steady state in dog at 1 mg/kg, iv by ESI-LCMS/MS analysis; type: ADME, organism-based, Canis lupus familiaris; details: in vivo
[25] = Oral bioavailability in dog at 5 mg/kg by ESI-LCMS/MS analysis; type: ADME, organism-based, Canis lupus familiaris; details: in vivo
[26] = Drug level in human liver microsomes treated with 1 uM N2-(2-Methoxy-4-(4-methyl-4H-1,2,4-triazol-3-yl)phenyl)-N8-neopentylpyrido[3,4-d]pyrimidine-2,8-diamine assessed as compound formation preincubated for 10 mins followed NADPH/UDP-glucuronic acid addition and measured after 30 mins by LC-MS/MS analysis; type: ADME, microsome; details: 0.5 h

In the case of `CCOc1cc(-c2nncn2C)ccc1Nc1ncc2cc(C)nc(N3CC(C)(C#N)C3)c2n1`, the CLH [1] is reported as 24.7 µL/min/mg, the CLH [2] is reported as 5.6 µL/min/mg and the solubility [3] is reported as 6.8 µM (≈ 3.1 µg/mL). For the same compound, the logP [4] was 3.25, the IC50 [5] was 20 nM and the Ki [5] was 0.2 nM. It also gave an IC50 (CDK2/Cyclin A2) of 2700 nM, a Ki (CDK2/Cyclin A2) of 1400 nM and an IC50 [6] of 110 nM.

For `CCOc1cc(-c2nncn2C)ccc1Nc1ncc2cc(C)nc(N3CC(C)(C)C3)c2n1`, the CLH [1] was 44.3 µL/min/mg, the CLH [2] was 25.2 µL/min/mg and the solubility [3] was 31.5 µM (≈ 14 µg/mL). The t1/2 (Mus musculus [7]) was 1.58 h, the t1/2 (Rattus norvegicus [8]) was 3.03 h and the clearance [9] was 16.3 mL/min/kg. It also gave a clearance [10] of 7.35 mL/min/kg, a Cmax [11] of 1420 nM and a Cmax [12] of 2350 nM. It also gave an AUC(0-t) at 6 h [13] of 8.11 µM·h, an AUC(0-t) at 24 h [14] of 18.3 µM·h and a PPB [15] of 99.28%. It also gave a Vd [16] of 2.09 L/kg, a Vd [17] of 1.88 L/kg and an F (Mus musculus [18]) of 75%. The F (Rattus norvegicus [19]) was 72%, the logP [4] was 3.85 and the IC50 [5] was 8.9 nM. For the same compound, the Ki [5] was 0.088 nM, the IC50 (CDK2/Cyclin A2) was 1600 nM and the Ki (CDK2/Cyclin A2) was 810 nM. The IC50 [6] was 37 nM.

For `CCOc1cc(-c2nncn2C)ccc1Nc1ncc2cc(C)nc(N3CCCC3)c2n1`, the logP [4] was 3.58, the IC50 [5] was 83 nM and the Ki [5] was 0.82 nM. For the same compound, the IC50 (CDK2/Cyclin A2) was 1100 nM, the Ki (CDK2/Cyclin A2) was 550 nM and the IC50 [6] was 370 nM.

For `COc1cc(-c2cnn(C)c2)ccc1Nc1ncc2ccnc(NCC(C)(C)C)c2n1`, the logP [4] was 4.27.

In the case of `CCOc1cc(-c2nnc3n2CCC3)ccc1Nc1ncc2cc(C)nc(NCC(C)(C)C)c2n1`, the CLH [1] is reported as 36.4 µL/min/mg, the CLH [2] is reported as 18.6 µL/min/mg and the logP [4] is reported as 4.75. It also gave an IC50 [5] of 38 nM, a Ki [5] of 0.38 nM and an IC50 (CDK2/Cyclin A2) of over 10000 nM. For the same compound, the Ki (CDK2/Cyclin A2) was over 5000 nM and the IC50 [6] was 250 nM.

Compound `COc1cc(-c2cnc(C)n2C)ccc1Nc1ncc2cc(C)nc(NCC(C)(C)C)c2n1` has a CLH [1] of 34.5 µL/min/mg, a CLH [2] of 28.2 µL/min/mg and a logP [4] of 4.55. For the same compound, the IC50 [5] was 9.5 nM, the Ki [5] was 0.094 nM and the IC50 (CDK2/Cyclin A2) was 1400 nM. It also gave a Ki (CDK2/Cyclin A2) of 720 nM and an IC50 [6] of 170 nM.

Compound `COc1cc(-c2nnc3n2CCC3)ccc1Nc1ncc2cc(C)nc(NCC(C)(C)C)c2n1` has a CLH [1] of 28.8 µL/min/mg, a CLH [2] of 28.8 µL/min/mg and a solubility [3] of 1.7 µM (≈ 0.78 µg/mL). The logP [4] was 4.4, the IC50 [5] was 19 nM and the Ki [5] was 0.19 nM. The IC50 (CDK2/Cyclin A2) was 250 nM, the Ki (CDK2/Cyclin A2) was 130 nM and the IC50 [6] was 240 nM.

With `COc1cc(-c2nncn2C)ccc1Nc1ncc2cc(C)nc(NCC(C)(C)C)c2n1` the CLH [1] was 41.1 µL/min/mg, the CLH [2] was 23.8 µL/min/mg and the solubility [3] was 8.6 µM (≈ 3.72 µg/mL). The logP [4] was 3.88, the Drug metabolism [20] was “Metabolite_Detected” and the IC50 [5] was 13 nM. It also gave a Ki [5] of 0.13 nM, an IC50 (CDK2/Cyclin A2) of 130 nM and a Ki (CDK2/Cyclin A2) of 65 nM. The IC50 [6] was 30 nM.

For `CCOc1cc(-c2nncn2C)ccc1Nc1ncc2cc(C)nc(NCC(C)(C)C)c2n1.Cl.Cl`, the t1/2 (Canis familiaris [21]) was 12 h, the Cmax [22] was 7770 nM and the AUC(0-t) at 48 h [23] was 147 µM·h. For the same compound, the Vdss (Canis familiaris [24]) was 1.1 L/kg and the bioavailability [25] was 100%.

With `COc1cc(-c2nnc(O)n2C)ccc1Nc1ncc2ccnc(NCC(C)(C)C)c2n1` the Drug uptake [26] was “Active”.
